Laboratory results reported in patent US10450278B2, “Substituted 2-thioxo-imidazolidin-4-ones and spiro analogues thereof, active anticancer ingredient, pharmaceutical composition, medicinal preparation, method for treating prostate cancer” (R-Pharm Overseas Inc., priority 2014, dated 2019).
pIC50, pKi: −log10 of the molar value.

Molecular target: T1, androgen receptors (Homo sapiens, UniProt P10275, T878A)
T1 sequence (P10275 1-920 T878A): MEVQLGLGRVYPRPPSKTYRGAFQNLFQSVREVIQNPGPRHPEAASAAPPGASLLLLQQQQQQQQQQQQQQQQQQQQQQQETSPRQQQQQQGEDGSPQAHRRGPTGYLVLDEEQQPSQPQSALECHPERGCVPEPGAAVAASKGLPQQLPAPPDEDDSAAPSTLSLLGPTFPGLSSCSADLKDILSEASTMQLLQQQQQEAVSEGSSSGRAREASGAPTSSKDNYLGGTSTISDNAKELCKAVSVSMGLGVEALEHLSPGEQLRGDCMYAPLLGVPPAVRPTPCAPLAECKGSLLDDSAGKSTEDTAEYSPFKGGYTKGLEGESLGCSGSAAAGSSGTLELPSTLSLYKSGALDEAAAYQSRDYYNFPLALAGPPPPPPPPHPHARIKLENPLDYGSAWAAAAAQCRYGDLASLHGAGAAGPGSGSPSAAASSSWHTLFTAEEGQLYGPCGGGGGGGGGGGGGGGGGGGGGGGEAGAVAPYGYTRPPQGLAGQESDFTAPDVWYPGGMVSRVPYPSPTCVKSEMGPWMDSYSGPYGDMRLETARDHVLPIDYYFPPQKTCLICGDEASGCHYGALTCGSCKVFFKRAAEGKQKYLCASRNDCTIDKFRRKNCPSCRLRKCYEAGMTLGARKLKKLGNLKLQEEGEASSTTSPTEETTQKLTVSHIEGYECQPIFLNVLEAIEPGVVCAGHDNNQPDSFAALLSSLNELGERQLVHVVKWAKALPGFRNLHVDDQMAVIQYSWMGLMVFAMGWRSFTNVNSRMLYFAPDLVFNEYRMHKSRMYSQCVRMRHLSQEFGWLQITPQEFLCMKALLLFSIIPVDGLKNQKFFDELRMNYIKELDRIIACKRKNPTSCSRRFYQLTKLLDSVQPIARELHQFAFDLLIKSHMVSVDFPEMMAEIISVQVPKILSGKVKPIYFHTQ
Experiment: cell-based
Procedure: Determination of antagonistic activity of the new compounds of general formula 1 and their analogues with respect to androgen receptors. The ability of the new compounds of general formula 1 and their analogues block androgen receptors is determined by their effectiveness ingbirovaniya sitmulirovannoy dihydrotestosterone expression of prostate-specific antigen (PSA) in the human prostate cancerous cells, LNCap, bank obtained from the American Tissue Culture (ATCC, USA). These cells are sensitive to 5-α-dihydrotestosterone (DHT) and produce cancerous marker (PSA) in its presence. […] Before experiments, the cells were washed and suspended in the same medium, where, however, calf serum was replaced with serum-treated to remove traces of charcoal hormones. Cells were dispensed at 100 1 (10 000 cells) in cell 96 lunochnoyh dies and left for 4 days in an incubator at […] (100% humidity) in an atmosphere of 95% air/5% CO2. […] Cells were allowed to stand for further 5 days under the same incubation conditions. Then nadkletochnoy environmental samples were taken for analysis on the content of the PSA. The analysis was performed according to the protocol recommended by the kit manufacturer to determine the PSA (Alpha Diagnostic International, USA). After wetting holes on the bottom affixed containing antibodies against PSA, they added 25 ul of samples and then 100 µL of antibodies as anti-PSA, which konyugtrovana horseradish peroxidase. After a 30 minute incubation at room temperature, the wells were removed, the wells were washed several times and poured into the wells, 100 ul of a chromogenic peroxidase substrate. Plates were incubated for 15 minutes at room temperature, the wells were added 50 mcl of stop solution and the intensity of color which developed was measured by absorbance at 450 nm. The intensity of the absorption is proportional to the concentration of PSA in the sample. […] 1.

| Structure (SMILES) | pIC50 | pKi |
| --- | --- | --- |
| CNC(=O)c1ccc(N2C(=S)N(c3ccc(C#N)c(C(F)(F)F)c3)C(=O)[C@@]2(C)COC)cc1F [II] | 6.84 | 7.46 |
| CNC(=O)c1ccc(N2C(=S)N(c3ccc(C#N)c(C(F)(F)F)c3)C(=O)[C@]23CCOC3)cc1F [IV] | 7.08 | 7.70 |
